According to the supplement of paper PMC10307832:

What was measured:
Test in all cases: relative viability (nuclei count vs DMSO), 5 days (fraction); higher = more cells survive
[1] = compound: CN[C@@H]1C[C@H]2O[C@@](C)([C@@H]1OC)n1c3ccccc3c3c4c(c5c6ccccc6n2c5c31)C(=O)NC4 [Staurosporine] + Nc1ncn([C@H]2C[C@H](O)[C@@H](CO)O2)c(=O)n1 [Decitabine] (partner 2 µM)
In short: (§1)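 Relative viability divides the nuclei count in treated wells by that in vehicle wells. Lung cancer cell lines were seeded in 1536-well plates, dosed by pin tool the next day, and fixed and stained after 5 days in one step with final 0.05% Triton X-100, 1% formaldehyde and 1 ug/ml Hoechst. Dosing was a single drug or a fixed anchor-drug dose plus five library-drug doses (not always all listed) in √10 steps, and values are medians of duplicate plates imaged at 4×.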

[2] = compound: O=c1[nH]cc(F)c(=O)[nH]1 [5-Fluorouracil] + Cc1nc(NC(=O)N2CCC[C@H]2C(N)=O)sc1-c1ccnc(C(C)(C)C(F)(F)F)c1 [Alpelisib] (partner 2 µM)
In short: as §1

[3] = compound: CN[C@@H]1C[C@H]2O[C@@](C)([C@@H]1OC)n1c3ccccc3c3c4c(c5c6ccccc6n2c5c31)C(=O)NC4 [Staurosporine] + COc1cc2c(Oc3ccc(NC(=O)C4(C(=O)Nc5ccc(F)cc5)CC4)cc3F)ccnc2cc1OCCCN1CCOCC1 [Foretinib] (partner 0.25 µM)
In short: as §1

Sulindac + Linsitinib = compound: CC1=C(CC(=O)O)c2cc(F)ccc2/C1=C\c1ccc([S+](C)[O-])cc1 [Sulindac] + C[C@]1(O)C[C@@H](c2nc(-c3ccc4ccc(-c5ccccc5)nc4c3)c3c(N)nccn32)C1 [Linsitinib] (partner 1 µM)
In short: as §1

Cell Line	relative viability ([1]; first compound 0.005 µM)	relative viability ([1]; first compound 0.01581 µM)	relative viability ([1]; first compound 0.05 µM)	relative viability ([1]; first compound 0.1581 µM)	relative viability ([1]; first compound 0.5 µM)	relative viability ([2]; first compound 0.02 µM)	relative viability ([2]; first compound 0.2 µM)	relative viability ([2]; first compound 0.6325 µM)	relative viability ([2]; first compound 2 µM)	relative viability ([3]; first compound 0.005 µM)	relative viability ([3]; first compound 0.01581 µM)	relative viability ([3]; first compound 0.1581 µM)	relative viability ([3]; first compound 0.5 µM)	relative viability (Sulindac + Linsitinib; first compound 0.08 µM)	relative viability (Sulindac + Linsitinib; first compound 0.253 µM)	relative viability (Sulindac + Linsitinib; first compound 0.8 µM)	relative viability (Sulindac + Linsitinib; first compound 2.53 µM)	relative viability (Sulindac + Linsitinib; first compound 8 µM)	relative viability ([3]; first compound 0.05 µM)
SK-LU-1	0.331	0.232	0.212	0.229	0.154	0.934	1.12	0.868	0.704	0.267	0.192	0.119	0.132	1.13	1.27	1.19	1	1.5	–
NCI-H1915	0.268	0.227	0.186	0.126	0.0975	1.04	1.04	0.963	0.83	–	0.542	0.283	0.278	1.13	1.14	1.09	1.11	1.07	0.552
NCI-H650	0.343	0.411	0.258	0.235	0.188	0.915	0.644	0.523	0.397	0.687	0.273	0.289	0.256	0.973	0.87	0.62	0.817	1.23	0.257
NCI-H441	0.226	0.192	0.238	0.129	0.0673	0.792	0.644	0.563	0.411	0.822	0.503	0.215	0.194	0.469	0.375	0.48	0.638	0.849	0.354
COR-L 105	0.603	0.44	0.381	0.332	0.229	0.725	1.11	0.874	0.449	0.439	0.389	0.341	0.231	1.1	0.857	0.729	0.992	1.13	0.322
NCI-H2009	0.331	0.272	0.196	0.172	0.0871	1.17	1.15	0.937	0.607	0.527	0.389	0.177	0.127	1.22	1.3	1.05	1.13	1.23	0.212
NCI-H1437	0.639	0.442	0.439	0.248	0.15	–	0.226	0.171	0.111	1.13	–	0.58	0.169	1.33	1.14	0.628	1.09	1.26	0.854
PC-3 [JPC-3]	0.883	0.586	0.55	0.422	0.349	0.913	1.04	0.838	0.708	1.07	0.483	0.359	0.4	0.932	0.95	0.951	0.905	0.984	0.525
NCI-H1703	–	–	–	–	–	0.279	0.327	0.371	0.359	0.303	0.246	0.2	0.156	0.673	0.873	0.561	0.761	1.15	0.196
EBC-1	–	–	–	–	–	0.865	0.841	0.792	0.612	0.107	0.102	0.0621	0.0633	0.937	1.16	0.509	1.04	0.989	0.103
NCI-H1792	0.432	0.298	0.224	0.133	0.065	0.691	0.606	0.168	0.116	–	–	–	–	0.557	0.561	–	0.455	0.558	–
NCI-H1650	0.397	0.533	0.341	0.168	0.124	–	–	–	–	0.927	0.586	0.216	0.133	–	–	–	–	–	0.201
NCI-H1563	–	–	–	–	–	0.772	0.931	0.821	0.841	0.696	0.612	0.611	0.463	1.13	1.15	1.03	1.15	1.31	0.575
SW 900	0.531	0.39	0.394	0.262	0.25	–	–	–	–	0.388	0.331	0.22	0.144	–	–	–	–	–	0.406
NCI-H1299	–	–	–	–	–	1.11	1.14	0.953	0.763	0.893	0.352	0.121	0.132	1.14	1.18	0.898	1.02	1.01	0.231
NCI-H1623	–	–	–	–	–	–	–	–	–	0.967	0.643	0.731	0.341	–	–	–	–	–	0.925
NCI-H2170	0.492	–	0.431	0.354	0.229	0.82	0.734	0.472	0.452	1.04	–	0.382	0.307	–	–	–	–	–	0.866
NCI-H2228	–	–	–	–	–	0.582	0.655	0.59	0.409	0.889	0.537	0.11	0.0985	0.704	0.659	0.765	0.701	1.2	0.317
HCC-44	0.937	–	0.661	0.302	0.275	0.824	0.722	0.4	0.267	–	–	–	–	0.769	0.729	0.707	0.702	0.786	–
NCI-H2342	0.772	0.687	0.513	0.553	0.372	–	–	–	–	1.01	0.816	0.516	0.4	–	–	–	–	–	0.486
Calu-6	–	–	–	–	–	1.03	0.976	0.684	0.448	0.75	0.456	0.0642	0.0391	1.29	1.07	0.738	1.03	1.11	0.254
ChaGo-K-1	0.641	–	0.544	0.435	0.432	–	–	–	–	0.881	0.528	0.223	0.188	–	–	–	–	–	0.676
